# Laboratory results as given in patent US5565336A, “Carboxy terminal IL-6 muteins” (University of North Carolina at Chapel Hill, priority 1994, dated 1996).
# Tests used:
# [1] = tested on: human hepatoma cell line HEP3B2; test: hepatocyte stimulation (fibrinogen induction) assay using human hepatoma cell line HEP3B2; assay type: cell-based; settings: in vitro activity on a human hepatoma cell line; result in words
# From the text: The biological activity of wild-type IL-6 and IL-6 muteins can be measured by standard assays for measuring IL-6 activity, as is known in the art. For example, the in vitro biological activity of the IL-6 muteins of the invention may be compared with native IL-6 in a fibrinogen induction assay using a human hepatoma cell line, HEP3B2. When determined in such an assay and expressed as a percentage of activity of native, wild-type, IL-6, the activity of which is defined as 100%, the biological activity of the muteins of the present invention is at least 125%, preferably at least 150%. (See Example 3 and FIG. 6)
# The hepatocyte stimulation assay using human hepatoma cell line HEP3B2 is carried out in duplicate serial dilutions of three or more independent preparations of each IL-6 mutein. The biological activity is determined from dose response curves prepared for each protein preparation. To minimize variation, a duplicate protein preparation of wild-type IL-6 is used in each 96-well tissue culture plate to calculate the activity of two (HEP3B2) IL-6 muteins on the same plate as a percentage of wild-type IL-6 activity. (See FIG. 6)
# Cells from the human hepatoma cell line HEP3B2 are maintained in DMEM-H medium supplemented with 10% fetal bovine serum and penicillin/streptomycin. […] The OD405 is determined on a Vmax ELISA plate reader (Molecular Devices Corp., Palo Alto, Calif.). […]
# [2] = tested on: IL-6 receptor; test: binding competition assay / Scatchard analysis with 125I-IL-6 on human myeloma cell line U-266; settings: Kd wild-type IL-6 divided by Kd mutein; result in words
# Protocol: The affinity may be determined with a Scatchard analysis and quantitated as a dissociation constant, Kd.
# Binding competition assays are performed using human recombinant IL-6 derived from Escherichia coli (Genetics Institute, Cambridge, Mass.). IL-6 is radioiodinated using the Bolton-Hunter reagent (New England Nuclear, Wilmington, Del.) as described by Faltynek, C. […] The specific activity of the radiolabelled IL-6 is 22 μC/μg. […] This medium is also used for making the dilutions of the IL-6 muteins and as the binding medium. The fetal bovine serum batches are routinely tested for IL-6 activity and only batches that show negligible IL-6 activity are used for competition binding assays. […]
# Binding is performed by sealing the plates with acetate plate sealers (ICN Biomedicals, Costa Mesa, Calif.) and end-over rotation for 3 hours at 4° C. […] The cell pellets are washed once with 200 μl of ice-cold Ca^++ /Mg^+ free Hank's balanced salt solution (HBSS), resuspended in 200 μl of HBSS, transferred to scintillation vials and counted in a gamma counter.
# The results of the Scatchard and competition binding assays are analyzed using a non-linear curve fitting program LIGAND. […] An apparent IC50 is calculated using the EBDA/LIGAND program.
substance,measurement,setting,value
IL-6 mutein with Phenylalanine at position 171 of the native sequence (Phe^171) replaced by Leucine (Leu): mutein of human IL-6 with substitution of Phenylalanine by Leucine at position 171; SEQ. ID. NOS. 3 and 4,biological activity compared to wild-type IL-6,[1],higher biological activity
same,receptor binding capacity compared to wild-type IL-6,[2],increased receptor binding capacity
